22 compounds from ChEMBL document CHEMBL1136198, “Pyrazolo[4,3-d]pyrimidines as new generation of cyclin-dependent kinase inhibitors” (Bioorg Med Chem Lett, 2003) can be followed below.

pIC50: −log10 of the molar value.

Assay [1] has as its target Cyclin-dependent kinase 1/cyclin B (Homo sapiens, UniProt P06493). Briefly: Inhibitory concentration against Cyclin-dependent kinase 1-cyclin B. It counts as protein-complex assay.
The target in assay [2] is K-562 cell line (Homo sapiens). The note with it: k562.

What is called pIC50 is the IC50 on a negative log10 scale, so that one unit is a factor of ten. A lower pIC50 goes with a high IC50. Take `COc1ccc(CNc2ncnc3c(C(C)C)n[nH]c23)cc1`: the pIC50 against K-562 (Homo sapiens) was 4.34.

Compound `CC(C)n1cnc2c(NCc3cccc(O)c3)ncnc21` showed a pIC50 in assay [1] of 5.51. This compound had an IC50 in assay [2] of more than 167 uM dm**-3.

On to `CC(C)c1n[nH]c2c(NCc3ccccc3Br)ncnc12`, for which the figures for the pIC50 (in assay [1]; on K-562 (Homo sapiens)) were 4.96 and 4.54, respectively.

Take `CC(C)c1n[nH]c2c(NCc3ccccc3O)ncnc12`: at K-562 (Homo sapiens), the pIC50 was 4.27.

Consider `CCCCCNc1ncnc2c(C(C)C)n[nH]c12`, for which the pIC50 in assay [1] was 5.92; at K-562 (Homo sapiens) it was 4.21.

Turning to `CC(C)n1cnc2c(Nc3cccc(Cl)c3)ncnc21`, the pIC50 in assay [1] was 5.23; on K-562 (Homo sapiens), 4.27.

Regarding `CC(C)c1n[nH]c2c(Nc3cccc(Cl)c3)ncnc12`, the figures for the pIC50 (in assay [1]; at K-562 (Homo sapiens)) were 6.05 and 4.74, respectively.

With `CC(C)c1n[nH]c2c(NCc3ccc(O)cc3)ncnc12`, in assay [2], the IC50 stood at 112 uM dm**-3.

On to `CC(C)c1n[nH]c2c(NCc3ccco3)ncnc12`, for which the pIC50 in assay [1] was 5.60. In assay [2], the IC50 is more than 167 uM dm**-3.

The compound `CC(C)n1cnc2c(NCc3ccco3)ncnc21` showed a negative-log IC50 (pIC50) in assay [1] of 5.04. In assay [2], this compound registered an IC50 of more than 167 uM dm**-3.

For the compound `CC(C)=CCNc1ncnc2c1ncn2C(C)C`, the pIC50 in assay [1] was 4.77. This compound also registered an IC50 in assay [2] of more than 167 uM dm**-3.

In turn, `CC(C)n1cnc2c(NCc3ccc(O)cc3)ncnc21` showed a pIC50 in assay [1] of 5.40. The IC50 in assay [2] is on record as more than 167 uM dm**-3.

Regarding `CC(C)n1cnc2c(NCc3ccccc3Br)ncnc21`, the results for the pIC50 (in assay [1]; against K-562 (Homo sapiens)) were 4.64 and 4.31, respectively.

In turn, `CC(C)=CCNc1ncnc2c(C(C)C)n[nH]c12` yielded an IC50 in assay [2] of 152 uM dm**-3.

With `COc1ccc(CNc2ncnc3c(C(C)C)n[nH]c23)cc1O`, the pIC50 in assay [1] is 5.96; against K-562 (Homo sapiens), 4.59.

For `CC(C)c1n[nH]c2c(NCc3cccc(O)c3)ncnc12`, the figures for the pIC50 (in assay [1]; against K-562 (Homo sapiens)) were 5.77 and 4.06, respectively.

The compound `CC(C)n1cnc2c(NCc3ccccc3)ncnc21` had a pIC50 in assay [1] of 5.44. Also, the IC50 in assay [2] is 113 uM dm**-3.

The compound `COc1ccc(CNc2ncnc3c2ncn3C(C)C)cc1O` had a pIC50 in assay [1] of 5.35. This compound yielded an IC50 in assay [2] of 104 uM dm**-3.

`CC(C)c1n[nH]c2c(NCc3ccccc3)ncnc12`: the values for the pIC50 (in assay [1]; against K-562 (Homo sapiens)) were 5.92 and 4.18, respectively.

`CCCCCNc1ncnc2c1ncn2C(C)C` had a negative logarithm of the IC50 (pIC50) in assay [1] of 5.16. The compound further had an IC50 in assay [2] of 144 uM dm**-3.

In turn, `CC(C)n1cnc2c(NCc3ccccc3O)ncnc21` gave a pIC50 in assay [1] of 5.36. In addition, the IC50 in assay [2] came to 125 uM dm**-3.

As for `COc1ccc(CNc2ncnc3c2ncn3C(C)C)cc1`, the pIC50 in assay [1] was 5.42. Besides, the IC50 in assay [2] was more than 167 uM dm**-3.
